Consider 15 compounds from patent US20090197916A1, “SOLUBLE EPOXIDE HYDROLASE INHIBITORS FOR TREATMENT OF METABOLIC SYNDROME AND RELATED DISORDERS” (Arete Therapeutics, Inc, priority 2007, published 2009).

The structures appear in SMILES notation.

One data set addresses T1, sEH (Homo sapiens, UniProt P34913).
T1 sequence (P34913 1-555): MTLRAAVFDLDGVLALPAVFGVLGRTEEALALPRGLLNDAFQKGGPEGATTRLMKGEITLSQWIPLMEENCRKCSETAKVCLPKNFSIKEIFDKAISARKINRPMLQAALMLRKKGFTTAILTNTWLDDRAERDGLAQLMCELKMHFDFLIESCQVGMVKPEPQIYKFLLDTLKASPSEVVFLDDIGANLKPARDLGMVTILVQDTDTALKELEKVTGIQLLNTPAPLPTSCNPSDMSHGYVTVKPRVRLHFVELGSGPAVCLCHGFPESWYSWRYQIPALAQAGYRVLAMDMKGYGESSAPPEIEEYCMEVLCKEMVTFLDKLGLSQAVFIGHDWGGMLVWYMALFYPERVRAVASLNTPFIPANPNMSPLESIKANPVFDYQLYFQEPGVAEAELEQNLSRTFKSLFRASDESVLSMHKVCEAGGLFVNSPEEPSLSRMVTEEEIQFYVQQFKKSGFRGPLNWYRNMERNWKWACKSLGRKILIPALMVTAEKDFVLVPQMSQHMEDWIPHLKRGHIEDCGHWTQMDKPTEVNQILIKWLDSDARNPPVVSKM
In words: sEH inhibition, fluorescent assay with CMNPC substrate (percent inhibition and IC50). Format: biochemical. Conditions: for IC50: procedure similar to the percent inhibition procedure. How it is done: The substrate for the reaction was:
Therefore, well A2 would refer to a well in the first row and second column of the plate.
In a black 96 well plate, all the wells are filled with 150 μL of buffer A (Buffer A: Bis/Tris HCl, 25 mM, pH 7.0 plus 0.1 mg/mL BSA). DMSO (2 microliters) was added in well A2 and A3, and then was added 2 μL of inhibitor solution in A1 and A4 through A12. […] The plate was incubated for 5 minutes in the plate reader at 30° C. During incubation, the working solution of substrate was prepared by mixing 3.68 mL of buffer A with 266 μL of 0.5 mM substrate solution. At t=0, 30 μL of working substrate solution was added and readings were started ([S]final: 5 μM).

Data set [1] has as its system wild-type mice on high-fat, high-fructose diet (HF) or standard chow (NC). Kind of data set: Metabolic Syndrome Model 2: diet induced obesity mouse model. The class given is in vivo. Conditions: for weight gain, HF-fed animals / total plasma cholesterol / glucose tolerance (GTT) / statistical significance of attenuated weight gain: HF diet; for weight gain, HF-fed animals: 60 mg/kg twice daily (Losartan 10 mg/kg/day in drinking water); for weight gain, HF-fed animals / total plasma cholesterol / glucose tolerance (GTT): vs vehicle; for total plasma cholesterol: 60 mg/kg twice daily, 4 weeks; for glucose tolerance (GTT): after 4 weeks of dosing 60 mg/kg twice daily; for statistical significance of attenuated weight gain: from second week of dose administration. From the text:
Seven groups of 10 wild-type mice were entered onto the study. Five groups were placed on an ad libitum high-fat, high-fructose diet (HF); two groups were fed ad libitum with standard rodent chow and water (NC). Animals were maintained on the respective diet for the entire 12 weeks of the study. […] Losartan (Cozaar®) is a compound approved by the FDA for the treatment of hypertension, reducing the risk of stroke in a patient with hypertension and left ventricular hypertrophy, and treatment of diabetic nephropathy with an elevated serum […] and proteinuria in patients with type 2 diabetes and a history of hypertension.
Glucose tolerance tests (GTTs) were performed in Week 7 (prior to the start of dosing) and Week 12 (after 4 weeks of dosing). Body weights were recorded semi-weekly throughout the study whereas chow consumption and liquid intake were recorded weekly. Plasma was collected from untreated (Week 7, prior to the start of dosing) and treated (at the end of in-life) animals and submitted for the determination of plasma cholesterol. At the end of the in-life period, animals were sacrificed after terminal bleeds and discarded; no necropsies were performed.

Data set [2] concerns male C57Bl/6 mice on high-fat, high-fructose diet. In words: Metabolic Syndrome Model 1: diet induced obesity mouse model. The class given is in vivo. As for the experimental part:
A diet induced obesity mouse model was used to evaluate the efficacy of the sEH inhibitor 1-[1-(methylsulfonyl)piperidin-4-yl]-3-(adamant-1-yl)urea (Compound 5) for the treatment of metabolic syndrome and the adverse conditions related thereto.
The study was performed using 7-8 week old male C57Bl/6 mice. The mice were acclimated a minimum of five days prior to the start of study and were housed five per cage in microisolators in a 12:12 light/dark cycle (all work was done in a BioBubble Hood™). Water and food was provided ad libitum.
The mice were provided a high-fat, high-fructose diet for a total of 11 weeks, within the first 5 weeks the animals became obese, insulin resistant, have increased plasma cholesterol and mildly hypertensive. The mice were separated into three groups, each group consisting of 10 mice after the first 5 weeks on the high-fat, high-fructose diet. The mice continued to receive the high-fat, high-fructose diet but also began to receive treatment for the remaining 6 weeks of the study for a total of 11 weeks of study. During the treatment phase, Group 1 was administered vehicle alone, perorally, twice a day for six weeks (control group); group 2 was administered 20 mg/kg of Compound 5, perorally, twice a day for six weeks; group 3 was administered 60 mg/kg Compound 5, perorally, twice a day for six weeks. At intervals of 3 and 5.5 weeks after the beginning of the treatment phase of the study, glucose tolerance tests were administered. At the beginning of the treatment phase and after 5 weeks of dosing, samples were collected for plasma cholesterol measurements. Blood pressure was measured 3 weeks after the start of the treatment phase of the study.
HF diet with 45% fat by calorie (Research Diets, D12451)
High-Fructose (degassed 7up)
Group 2) High-Fat Diet+Compound 5-20 mg/kg p.o. (perorally) b.i.d. (twice a day)
Group 3) High-Fat Diet+Compound 5-60 mg/kg p.o. (perorally) b.i.d. (twice a day)
Throughout duration of the study body weight, food, and fructose consumption was measured twice a week. Blood pressure and heart rate was measured one week.
Mice were randomized on the basis of average Body Weight in each of the three groups (n=10/gp).
GTT—Animals were fasted for 4 hours followed by a glucose load (2 g/kG body wt). The tip (3 mm) of the tail was excised and blood samples were taken for glucose clearance measurements (Glucometer) at T=0, 15, 30, 60, 90, and 120 minutes. This test determines if the animal is has glucose intolerance.
Plasma was analyzed using a lipid and chem panel analysis (Lipid-total cholesterol, HDL, LDL and Triglycerides, FFA).
p.o. (perorally) dosing of Compound 5 at 20 mg/kg and at 60 mg/kg begins b.i.d. twice a day) for […]
Measure blood pressure using a non-invasive CODA 6 occlusion cuff system

As usually defined, the % Inhibition is the drop in the measured response relative to a control, in per cent. As for `O=C(Nc1ccc(C(F)(F)F)cc1)Nc1cccc(C(=O)N2CCOCC2)c1` [Compound 1, 1-[3-(morpholino-4-carbonyl)phenyl]-3-(4-trifluoromethylphenyl) urea], on sEH (Concentration 50 nM), the “% Inhibition” value was 82%.
`CC(=O)N1CCC(NC(=O)Nc2ccc(C(F)(F)F)cc2)CC1` [Compound 3, 1-[1-(acetyl)piperidin-4-yl]-3-(4-trifluoromethylphenyl) urea]: in data set [1], the “weight gain, HF-fed animals” value is “gained less weight”; the total plasma cholesterol entry is “slight elevation of total cholesterol”; the “glucose tolerance (GTT)” value is given as “statistically significant improvements in glucose tolerance”; the “statistical significance of attenuated weight gain” value is “statistically significant”.
In the case of `CS(=O)(=O)N1CCC(NC(=O)Nc2ccc(C(F)(F)F)cc2)CC1` [Compound 4, 1-[1-(methylsulfonyl)piperidin-4-yl]-3-(4-trifluoromethylphenyl) urea], in data set [1], the “weight gain, HF-fed animals” value is reported as “gained less weight”; the total plasma cholesterol entry is listed as “decreases in total plasma cholesterol level, although not statistically significant”; the “glucose tolerance (GTT)” value was “statistically significant improvements in glucose tolerance”.
Regarding `CS(=O)(=O)N1CCC(NC(=O)NC23CC4CC(CC(C4)C2)C3)CC1` [Compound 5, 1-[1-(methylsulfonyl)piperidin-4-yl]-3-(adamant-1-yl) urea], in data set [2] (60 mg/kg twice a day, vs vehicle, p<0.01), the cholesterol level entry was “statistically lower cholesterol level”. Further, the blood pressure entry in data set [2] (60 mg/kg twice a day, vs vehicle, p<0.05) is “statistically significantly lower blood pressure”. In addition, the heart rate entry in data set [2] (20 and 60 mg/kg b.i.d.) is given as “did not significantly alter heart rate”. For the same compound, the “systolic and diastolic blood pressure” value in data set [2] (20 and 60 mg/kg b.i.d., 3 weeks of treatment, vs control) was “reduced”. Further, the “serum glucose in GTT” value in data set [2] (20 and 60 mg/kg p.o. b.i.d., relative to control group) is given as “decrease in serum glucose”. In addition, the “area under the curve for plasma glucose after interperitonial glucose” value in data set [2] (both 20 and 60 mg/kg twice a day, vs vehicle and start of treatment, p<0.01) is recorded as “statistically lower area under the curve”. For the same compound, the body weight result in data set [2] (either dose (20 or 60 mg/kg p.o. b.i.d.), vs vehicle) was “stabilization in body weight”. Further, the plasma cholesterol levels entry in data set [2] (relative to control group, 5 weeks of dosing) is “reduced”. The mean blood pressure result in data set [2] (vs control group) is “similarly reduced”. Besides, in data set [1], the “weight gain, HF-fed animals” value is “gained less weight”; the total plasma cholesterol result is on record as “statistically significant decreases in cholesterol”; the “glucose tolerance (GTT)” value is “statistically significant improvements in glucose tolerance”; the “statistical significance of attenuated weight gain” value is recorded as “statistically significant”. The “body weights, animals on NC” value in data set [1] (NC diet, Compound 5 60 mg/kg twice daily vs vehicle) is “similar”.
By IC50 is commonly meant the concentration that inhibits the measured activity by half. A lower IC50 goes with higher potency. `CC(C)(C)CC(=O)N1CCC(NC(=O)Nc2ccc(C(F)(F)F)cc2)CC1` [Compound 7, 1-(1-(3,3-dimethylbutanoyl)piperidin-4-yl)-3-(4-(trifluoromethyl)phenyl)urea]: at sEH, the IC50 is 0.8 nM. This lies in the sub-nanomolar range.
The same measure, in the same setting: to `CC(=O)N1CCC(NC(=O)Nc2cccc(C(F)(F)F)c2)CC1` [Compound 9, 1-(1-Acetyl-piperidin-4-yl)-3-(3-trifluoromethyl-phenyl)-urea] belongs 10.1 nM; to `CC(C)OC(=O)N1CCC(NC(=O)Nc2ccc(C(F)(F)F)cc2)CC1` [Compound 11, isopropyl 4-(3-(4-(trifluoro-methyl)phenyl)ureido)-piperidine-1-carboxylate], 0.8 nM; to `O=C(NC1CCCCC1)NC1CCN(C(=O)c2ccccn2)CC1` [Compound 12, 1-cyclohexyl-3-(1-picolinoylpiperidin-4-yl)urea], 5.3 nM.
The compound `CC(C)S(=O)(=O)N1CCC(NC(=O)Nc2ccc(OC(F)(F)F)cc2)CC1` [Compound 13, 1-(1-(isopropylsulfonyl)piperidin-4-yl)-3-(4-(trifluoromethoxy)phenyl)urea] showed an IC50 on sEH of 1.6 nM.
Same read-out and setting: with `O=C(Nc1ccc(C(F)(F)F)cc1)NC1CCN(c2ccc(C(F)(F)F)cn2)CC1` [Compound 14, 1-(4-(trifluoromethyl)-phenyl)-3-(1-(5-(trifluoromethyl)-pyridin-2-yl)piperidin-4-yl)urea] the figure was 7.5 nM.
On the same count and under the same terms, with `CC(C)OC(=O)N1CCC(NC(=O)Nc2ccc(OC(F)(F)F)cc2)CC1` [Compound 15, isopropyl 4-(3-(4-(trifluoromethoxy)phenyl)ureido)piperidine-1-carboxylate] the figure was 2.1 nM.
Regarding `O=C(Nc1ccc(C(F)(F)F)cc1)Nc1ccc(Oc2ccccc2)nc1` [Compound 16, 1-(6-phenoxypyridin-3-yl)-3-(4-(trifluoromethyl)phenyl)urea], the IC50 at sEH was found to be 7.1 nM.
On to `CC(=O)NC1CCC(NC(=O)Nc2ccc(C(F)(F)F)cc2)CC1` (stereo not drawn) [Compound 17, N-(4-(3-(4-(trifluoromethyl)phenyl)ureido)cyclohexyl)acetamide], for which the IC50 against sEH worked out at 6.2 nM.
Same read-out and setting: to `O=C(Nc1ccc(C(F)(F)F)cc1)Nc1ccc(S(=O)(=O)c2ccccc2)cc1` [Compound 18, 1-(4-benzenesulfonyl-phenyl)-3-(4-trifluoromethyl-phenyl)-urea] belongs 3.8 nM.
For `CCCCc1nc(Cl)c(CO)n1Cc1ccc(-c2ccccc2-c2nn[nH]n2)cc1` [Losartan, reference compound], the “weight gain, HF-fed animals” value in data set [1] was “gained less weight”.
